From patent EP4725957A1, “GROUP OF CYCLIC ALKALINE LIPOPEPTIDE COMPOUNDS, AND PREPARATION METHOD THEREFOR AND USE THEREOF” (Institute of Medicinal Biotechnology, Chinese Academy of …, priority 2023, dated 2024) come the findings set out here.

The structures appear in SMILES notation. Bridge positions count the residues as written; N and C are the ends. Square brackets hold non-standard residues; d marks the D form. Peptide text beside a SMILES is read from it. * marks the point of attachment. Heptanoyl(6-Me) = CC(C)CCCCC(=O)*; Dab = NCC[C@H](N)C(=O)O; Dap = NC[C@H](N)C(=O)O

The subject of this experiment is Pseudomonas aeruginosa ATCC27853. Kind of experiment: In vivo antibacterial (protection) test in infected mice. To be noted: infected ICR mice; for mortality rate: 7 days observation. The source says: Pseudomonas aeruginosa ATCC27853 was selected for the determination of in vivo antibacterial activity.
One day before infection, the test bacteria were inoculated onto the corresponding nutrient agar plates and cultured overnight. On the day of infection, single colonies grown on the plates were picked and suspended in sterile normal saline, and the suspension was mixed thoroughly to obtain the original bacterial solution. The bacterial solution was then adjusted to the required concentration with 5% dried yeast powder and prepared freshly prior to use.
Healthy ICR mice were randomly divided into groups, with 5 mice per group, half male and half female. Bacterial solutions of different dilutions were aspirated and injected intraperitoneally into mice at a volume of 0.5 mL per 20 g of body weight. The mortality of mice was recorded within 7 days after infection. The minimum bacterial dose causing 100% mortality in mice was defined as the minimum lethal dose (MLD), which was used as the infection dose for the in vivo protection test.
Drug administration was performed via tail vein injection at 2 h, 8 h, 24 h, and 30 h after infection, with a total of 4 administrations, and the administration volume was 20 mL/kg. For the preparation of drug solutions, Compound 7, together with the control drugs polymyxin B and meropenem, were dissolved in normal saline to the required concentrations for tail vein injection, and all solutions were prepared freshly prior to use.
In the preliminary test, the drug dose concentrations that caused 100% mortality and no mortality in mice after infection with the tested bacteria were determined. Based on this dose range, 4-5 dose groups were established, with a dose ratio of 1:0.5 to 1:0.8 between adjacent groups.
Mice were randomly grouped according to body weight, with 8 mice per group (half male and half female). Each mouse was intraperitoneally infected with the test bacterial solution at a volume of 0.5 mL per 20 g of body weight, followed by tail vein injection at 2 h, 8 h, 24 h, and 30 h after infection. Mice in the blank control group were not infected with bacterial solution but were only given an equal volume of vehicle at an administration volume of 20 mL/kg. The mortality of mice was observed and recorded for 7 consecutive days.
The minimum lethal bacterial concentration of Pseudomonas aeruginosa ATCC27853 for intraperitoneal infection in mice was 4.2 × 10^2 CFU/mL, which was used as the infection dose in the formal test.
Mice in the infection control group were intraperitoneally inoculated with Pseudomonas aeruginosa ATCC27853 bacterial solution at the MLD concentration ([…]). Infection symptoms began to appear 3-4 hours after inoculation, and all 8 animals died within 48 hours (8/8), with a mortality rate of 100%.

Setting [1] is: tail vein twice daily for 2 days, Bliss method.

As usually defined, the ED50 is the midpoint of the dose-response relation. Higher therefore signals weaker potency. Take `CC(C)CCCCC(=O)N[C@@H](CCN)C(=O)N[C@H](C(=O)N[C@@H](CN)C(=O)N[C@H]1CCNC(=O)[C@H]([C@@H](C)O)NC(=O)[C@H](CCN)NC(=O)[C@H](CCN)NC(=O)[C@H]([C@@H](C)O)NC(=O)[C@@H](Cc2ccccc2)NC(=O)[C@H](CCN)NC1=O)[C@@H](C)O` [Compound 7, 6-methylheptanoyl-Dab-Thr-Dap-ring(4-10)[Dab-Dab-D-Phe-Thr-Dab-Dab-Thr]] ({Heptanoyl(6-Me)}-[Dab]T[Dap][Dab][Dab][dF]T[Dab][Dab]T; lactam 4-C): the mortality rate turned out to be 100% (3.4 mg/kg tail vein twice daily for 2 days), 87.5% (4.9 mg/kg tail vein twice daily for 2 days), 37.5% (7 mg/kg tail vein twice daily for 2 days) and 0% (10 mg/kg tail vein twice daily for 2 days). The same molecule gave an ED5 under setting [1] of 4.54 mg/kg. The same molecule showed an ED50 under setting [1] of 6.38 mg/kg. Under setting [1], this molecule yielded an ED95 of 8.96 mg/kg.
